Data published in the supplement of paper PMC10307832.

Experiments:
Experiment in all cases: relative viability (nuclei count vs DMSO), 5 days (fraction); higher = more cells survive
PC-14 = system: PC-14
Procedure, shortened: (§1)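 Five library-drug doses in √10 steps were combined with a fixed anchor-drug dose, or a single drug was given alone, by pin tool to lung cancer cell lines in 1536-well plates the day after seeding. Nuclei were stained and counted after 5 days. Relative viability is the nuclei count in treated wells over that in vehicle wells, taken as the median of duplicate plates.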

SW 1573 = system: SW 1573
Procedure, shortened: as §1

RERF-LC-KJ = system: RERF-LC-KJ
Procedure, shortened: as §1

LK-2 = system: LK-2
Procedure, shortened: as §1

H3255 = system: H3255
Procedure, shortened: as §1

NCI-H2228 = system: NCI-H2228
Procedure, shortened: as §1

EKVX = system: EKVX
Procedure, shortened: as §1

NCI-H322M = system: NCI-H322M
Procedure, shortened: as §1

NCI-H520 = system: NCI-H520
Procedure, shortened: as §1

HCC-827 = system: HCC-827
Procedure, shortened: as §1

HCC-15 = system: HCC-15
Procedure, shortened: as §1

PC-3 [JPC-3] = system: PC-3 [JPC-3]
Procedure, shortened: as §1

COR-L23 = system: COR-L23
Procedure, shortened: as §1

NCI-H1734 = system: NCI-H1734
Procedure, shortened: as §1

NCI-H1437 = system: NCI-H1437
Procedure, shortened: as §1

NCI-H1650 = system: NCI-H1650
Procedure, shortened: as §1

NCI-H2405 = system: NCI-H2405
Procedure, shortened: as §1

NCI-H1355 = system: NCI-H1355
Procedure, shortened: as §1

CAL-12T = system: CAL-12T
Procedure, shortened: as §1

Q: For `NC(=O)Nc1cc(-c2cccc(F)c2)sc1C(=O)N[C@H]1CCCNC1` [AZD7762] + CC1(C)CCC(c2ccc(Cl)cc2)=C(CN2CCN(c3ccc(C(=O)NS(=O)(=O)c4ccc(N[C@H](CCN5CCOCC5)CSc5ccccc5)c(S(=O)(=O)C(F)(F)F)c4)cc3)CC2)C1 [Navitoclax] (partner 0.5 µM), which relative viability (PC-14; first compound 0.01 µM) is on record?
A: 1.09

Q: And the relative viability (PC-14; first compound 0.03162 µM)?
A: 1.02

Q: What about the relative viability (PC-14; first compound 0.1 µM) of the same compound?
A: 1.02

Q: And the relative viability (PC-14; first compound 0.3162 µM)?
A: 0.895

Q: And the relative viability (PC-14; first compound 1 µM)?
A: 0.512

Q: And the relative viability (SW 1573; first compound 0.01 µM)?
A: 1.19

Q: What about the relative viability (SW 1573; first compound 0.03162 µM) of the same compound?
A: 1.12

Q: And the relative viability (SW 1573; first compound 0.1 µM)?
A: 1.21

Q: And the relative viability (SW 1573; first compound 0.3162 µM)?
A: 0.764

Q: What about the relative viability (SW 1573; first compound 1 µM) of the same compound?
A: 0.887

Q: What about the relative viability (RERF-LC-KJ; first compound 0.01 µM) of the same compound?
A: 1.15

Q: What about the relative viability (RERF-LC-KJ; first compound 0.03162 µM) of the same compound?
A: 0.913

Q: And the relative viability (RERF-LC-KJ; first compound 0.1 µM)?
A: 1.12

Q: And the relative viability (RERF-LC-KJ; first compound 0.3162 µM)?
A: 1.21

Q: And the relative viability (RERF-LC-KJ; first compound 1 µM)?
A: 0.878

Q: And the relative viability (LK-2; first compound 0.01 µM)?
A: 0.849

Q: And the relative viability (LK-2; first compound 0.03162 µM)?
A: 0.822

Q: What about the relative viability (LK-2; first compound 0.1 µM) of the same compound?
A: 0.838

Q: And the relative viability (LK-2; first compound 0.3162 µM)?
A: 0.756

Q: And the relative viability (LK-2; first compound 1 µM)?
A: 0.607

Q: What about the relative viability (H3255; first compound 0.01 µM) of the same compound?
A: 0.51

Q: And the relative viability (H3255; first compound 0.03162 µM)?
A: 0.509

Q: What about the relative viability (H3255; first compound 0.1 µM) of the same compound?
A: 0.526

Q: What about the relative viability (H3255; first compound 0.3162 µM) of the same compound?
A: 0.524

Q: And the relative viability (H3255; first compound 1 µM)?
A: 0.448

Q: And the relative viability (NCI-H2228; first compound 0.01 µM)?
A: 1

Q: And the relative viability (NCI-H2228; first compound 0.03162 µM)?
A: 0.552

Q: And the relative viability (NCI-H2228; first compound 0.1 µM)?
A: 1

Q: And the relative viability (NCI-H2228; first compound 0.3162 µM)?
A: 0.666

Q: What about the relative viability (NCI-H2228; first compound 1 µM) of the same compound?
A: 0.354

Q: And the relative viability (EKVX; first compound 0.01 µM)?
A: 0.954

Q: What about the relative viability (EKVX; first compound 0.03162 µM) of the same compound?
A: 0.863

Q: What about the relative viability (EKVX; first compound 0.1 µM) of the same compound?
A: 0.918

Q: And the relative viability (EKVX; first compound 0.3162 µM)?
A: 0.596

Q: What about the relative viability (EKVX; first compound 1 µM) of the same compound?
A: 0.574

Q: And the relative viability (NCI-H322M; first compound 0.01 µM)?
A: 1.14

Q: And the relative viability (NCI-H322M; first compound 0.03162 µM)?
A: 1.33

Q: What about the relative viability (NCI-H322M; first compound 0.1 µM) of the same compound?
A: 1.29

Q: What about the relative viability (NCI-H322M; first compound 0.3162 µM) of the same compound?
A: 1.22

Q: And the relative viability (NCI-H322M; first compound 1 µM)?
A: 1.03

Q: What about the relative viability (NCI-H520; first compound 0.01 µM) of the same compound?
A: 1.11

Q: And the relative viability (NCI-H520; first compound 0.03162 µM)?
A: 1.13

Q: What about the relative viability (NCI-H520; first compound 0.1 µM) of the same compound?
A: 1.07

Q: What about the relative viability (NCI-H520; first compound 0.3162 µM) of the same compound?
A: 0.595

Q: And the relative viability (NCI-H520; first compound 1 µM)?
A: 0.45

Q: And the relative viability (HCC-827; first compound 0.01 µM)?
A: 1

Q: What about the relative viability (HCC-827; first compound 0.03162 µM) of the same compound?
A: 0.918

Q: What about the relative viability (HCC-827; first compound 0.1 µM) of the same compound?
A: 0.991

Q: And the relative viability (HCC-827; first compound 0.3162 µM)?
A: 0.94

Q: And the relative viability (HCC-827; first compound 1 µM)?
A: 0.93

Q: And the relative viability (HCC-15; first compound 0.01 µM)?
A: 0.663

Q: And the relative viability (HCC-15; first compound 0.03162 µM)?
A: 0.708

Q: What about the relative viability (HCC-15; first compound 0.1 µM) of the same compound?
A: 0.771

Q: And the relative viability (HCC-15; first compound 0.3162 µM)?
A: 0.728

Q: And the relative viability (HCC-15; first compound 1 µM)?
A: 0.789

Q: What about the relative viability (PC-3 [JPC-3]; first compound 0.01 µM) of the same compound?
A: 0.776

Q: What about the relative viability (PC-3 [JPC-3]; first compound 0.03162 µM) of the same compound?
A: 0.824

Q: And the relative viability (PC-3 [JPC-3]; first compound 0.1 µM)?
A: 0.802

Q: And the relative viability (PC-3 [JPC-3]; first compound 0.3162 µM)?
A: 0.847

Q: What about the relative viability (PC-3 [JPC-3]; first compound 1 µM) of the same compound?
A: 0.823

Q: What about the relative viability (COR-L23; first compound 0.01 µM) of the same compound?
A: 1.28

Q: What about the relative viability (COR-L23; first compound 0.03162 µM) of the same compound?
A: 1.01

Q: What about the relative viability (COR-L23; first compound 0.1 µM) of the same compound?
A: 1.01

Q: What about the relative viability (COR-L23; first compound 0.3162 µM) of the same compound?
A: 0.891

Q: What about the relative viability (COR-L23; first compound 1 µM) of the same compound?
A: 0.194

Q: What about the relative viability (NCI-H1734; first compound 0.01 µM) of the same compound?
A: 0.995

Q: And the relative viability (NCI-H1734; first compound 0.03162 µM)?
A: 0.892

Q: What about the relative viability (NCI-H1734; first compound 0.1 µM) of the same compound?
A: 0.978

Q: What about the relative viability (NCI-H1734; first compound 0.3162 µM) of the same compound?
A: 0.891

Q: What about the relative viability (NCI-H1734; first compound 1 µM) of the same compound?
A: 0.606

Q: What about the relative viability (NCI-H1437; first compound 0.01 µM) of the same compound?
A: 1.09

Q: What about the relative viability (NCI-H1437; first compound 0.03162 µM) of the same compound?
A: 1.04

Q: And the relative viability (NCI-H1437; first compound 0.1 µM)?
A: 1.07

Q: What about the relative viability (NCI-H1437; first compound 0.3162 µM) of the same compound?
A: 1.08

Q: And the relative viability (NCI-H1437; first compound 1 µM)?
A: 1.05

Q: What about the relative viability (NCI-H1650; first compound 0.01 µM) of the same compound?
A: 1.33

Q: And the relative viability (NCI-H1650; first compound 0.03162 µM)?
A: 1.42

Q: And the relative viability (NCI-H1650; first compound 0.1 µM)?
A: 1.22

Q: And the relative viability (NCI-H1650; first compound 0.3162 µM)?
A: 0.917

Q: What about the relative viability (NCI-H1650; first compound 1 µM) of the same compound?
A: 0.327

Q: And the relative viability (NCI-H2405; first compound 0.01 µM)?
A: 0.812

Q: What about the relative viability (NCI-H2405; first compound 0.03162 µM) of the same compound?
A: 0.925

Q: And the relative viability (NCI-H2405; first compound 0.1 µM)?
A: 0.873

Q: What about the relative viability (NCI-H2405; first compound 0.3162 µM) of the same compound?
A: 0.675

Q: What about the relative viability (NCI-H2405; first compound 1 µM) of the same compound?
A: 0.244

Q: And the relative viability (NCI-H1355; first compound 0.01 µM)?
A: 0.879

Q: And the relative viability (NCI-H1355; first compound 0.03162 µM)?
A: 1.07

Q: And the relative viability (NCI-H1355; first compound 0.1 µM)?
A: 0.946

Q: And the relative viability (NCI-H1355; first compound 0.3162 µM)?
A: 1.01

Q: And the relative viability (NCI-H1355; first compound 1 µM)?
A: 0.914

Q: And the relative viability (CAL-12T; first compound 0.01 µM)?
A: 1.23

Q: And the relative viability (CAL-12T; first compound 0.03162 µM)?
A: 1.18

Q: What about the relative viability (CAL-12T; first compound 0.1 µM) of the same compound?
A: 1.24

Q: And the relative viability (CAL-12T; first compound 0.3162 µM)?
A: 1.09

Q: And the relative viability (CAL-12T; first compound 1 µM)?
A: 0.169
